Earlier results as cited in patent publication US20250367137A1, “Phloroglucinol Formulations And Methods Of Use” (priority 2022, published 2025).

System: irritable bowel syndrome (IBS) sufferers
Conditions: placebo-controlled trials

Oc1cc(O)cc(O)c1 [phloroglucinol]
improvement in pain and stool frequency: statistically significant improvement
